# From US20240277713A1 (Kadmon Corporation, LLC, priority 2022, published 2024)
# What was measured:
# UGT1A1 = target: T1, UGT1A1 (Homo sapiens, UniProt P22309); assay: Enzyme systems in vitro: UGT1A1; format: in vitro ADME
# T1 sequence (P22309 26-533): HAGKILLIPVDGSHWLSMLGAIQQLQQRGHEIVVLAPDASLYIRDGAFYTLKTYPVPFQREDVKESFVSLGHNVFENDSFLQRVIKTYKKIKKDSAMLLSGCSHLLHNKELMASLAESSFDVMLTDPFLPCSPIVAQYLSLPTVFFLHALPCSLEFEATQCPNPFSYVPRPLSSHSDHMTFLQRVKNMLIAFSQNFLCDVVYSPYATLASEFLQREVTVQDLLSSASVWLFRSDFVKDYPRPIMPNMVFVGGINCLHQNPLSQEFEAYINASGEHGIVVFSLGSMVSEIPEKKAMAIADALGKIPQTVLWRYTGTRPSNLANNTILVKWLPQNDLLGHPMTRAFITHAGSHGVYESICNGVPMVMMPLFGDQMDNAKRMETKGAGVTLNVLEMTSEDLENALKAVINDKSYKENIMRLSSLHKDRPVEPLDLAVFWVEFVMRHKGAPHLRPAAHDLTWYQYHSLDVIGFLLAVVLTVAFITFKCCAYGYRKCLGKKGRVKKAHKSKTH
# [1] = Toxicokinetic analysis in rat plasma (Example 5); format: in vivo; details: for Cmax / AUC(0-t): rat, plasma; for AUC(0-t): read-out: AUC0-24
# Description: TK animals were dosed for 70 and 14 days for the males and females, respectively. Dosing of TK males and females was initiated simultaneously, continuing to euthanasia. Refrigerated daily aliquots of dosing formulations were brought to room temperature while continuously stirring for at least 30 minutes prior to dosing.
# [2] = Toxicokinetic evaluation in pregnant rats (Example 3); format: in vivo, rat; details: for Cmax / AUC(0-t): female, Sprague-Dawley, rat, plasma, po; for AUC(0-t): read-out: Mean AUC0-24 in plasma of pregnant rats
# Description: Animals received in-life and postmorten evaluations.
# [3] = system: human peripheral blood lymphocytes (HPBL); assay: in vitro chromosome aberration assay; format: cell-based
# [4] = Pharmacokinetics in healthy subjects; format: in vivo, human
# [5] = Pharmacokinetics in chronic GVHD patients; format: in vivo, human
# OATP1B1 = target: T2, OATP1B1 (Homo sapiens, UniProt Q9Y6L6); assay: Transporter systems in vitro: OATP1B1; format: in vitro ADME; details: clinically relevant concentrations
# T2 sequence (Q9Y6L6 1-691): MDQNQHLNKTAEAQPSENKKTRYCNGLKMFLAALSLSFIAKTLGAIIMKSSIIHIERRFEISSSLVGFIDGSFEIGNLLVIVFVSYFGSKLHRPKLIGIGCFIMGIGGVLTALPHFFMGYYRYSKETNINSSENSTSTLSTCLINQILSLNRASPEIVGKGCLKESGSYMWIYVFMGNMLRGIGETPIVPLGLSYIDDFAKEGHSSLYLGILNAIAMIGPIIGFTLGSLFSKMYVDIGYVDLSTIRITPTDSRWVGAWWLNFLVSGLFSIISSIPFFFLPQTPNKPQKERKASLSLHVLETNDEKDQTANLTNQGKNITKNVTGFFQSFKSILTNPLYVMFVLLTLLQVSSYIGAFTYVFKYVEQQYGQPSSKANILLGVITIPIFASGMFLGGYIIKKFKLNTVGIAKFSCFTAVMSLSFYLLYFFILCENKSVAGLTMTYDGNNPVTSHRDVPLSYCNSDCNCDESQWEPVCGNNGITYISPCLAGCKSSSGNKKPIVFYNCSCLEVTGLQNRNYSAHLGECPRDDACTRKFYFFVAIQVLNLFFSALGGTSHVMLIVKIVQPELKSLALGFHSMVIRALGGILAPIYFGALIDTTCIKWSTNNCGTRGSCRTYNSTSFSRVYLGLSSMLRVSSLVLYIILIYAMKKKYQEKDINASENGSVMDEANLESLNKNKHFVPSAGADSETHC
# CYP2D6 = CYP2D6 (Homo sapiens, UniProt P10635); assay: Enzyme systems in vitro: CYP2D6; format: in vitro ADME
# CYP2D6, sequence (P10635 whole entry): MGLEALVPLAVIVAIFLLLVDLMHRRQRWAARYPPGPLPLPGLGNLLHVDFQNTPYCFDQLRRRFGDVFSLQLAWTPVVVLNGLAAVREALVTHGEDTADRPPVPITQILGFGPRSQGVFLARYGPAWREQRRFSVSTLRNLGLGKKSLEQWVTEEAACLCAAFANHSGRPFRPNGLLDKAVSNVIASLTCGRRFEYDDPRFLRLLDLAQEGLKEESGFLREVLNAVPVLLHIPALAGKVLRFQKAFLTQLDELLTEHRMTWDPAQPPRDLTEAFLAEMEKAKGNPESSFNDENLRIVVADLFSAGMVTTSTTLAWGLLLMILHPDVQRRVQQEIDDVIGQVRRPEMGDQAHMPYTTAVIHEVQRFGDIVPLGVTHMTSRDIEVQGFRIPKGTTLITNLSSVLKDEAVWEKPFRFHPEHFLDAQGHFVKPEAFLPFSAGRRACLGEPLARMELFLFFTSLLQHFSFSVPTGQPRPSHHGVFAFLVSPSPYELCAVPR
# [6] = system: CYP3A4, CYP2C8, CYP2D6, and UGT1A9; assay: Metabolism in vitro; format: in vitro ADME
# [7] = target: CYP3A4, CYP2C8, CYP2D6, and UGT1A9 (Homo sapiens, UniProt P08684); assay: Metabolism in vitro; format: in vitro ADME
# CYP3A4, CYP2C8, CYP2D6, and UGT1A9 (Homo sapiens, UniProt P08684), sequence (P08684 2-503): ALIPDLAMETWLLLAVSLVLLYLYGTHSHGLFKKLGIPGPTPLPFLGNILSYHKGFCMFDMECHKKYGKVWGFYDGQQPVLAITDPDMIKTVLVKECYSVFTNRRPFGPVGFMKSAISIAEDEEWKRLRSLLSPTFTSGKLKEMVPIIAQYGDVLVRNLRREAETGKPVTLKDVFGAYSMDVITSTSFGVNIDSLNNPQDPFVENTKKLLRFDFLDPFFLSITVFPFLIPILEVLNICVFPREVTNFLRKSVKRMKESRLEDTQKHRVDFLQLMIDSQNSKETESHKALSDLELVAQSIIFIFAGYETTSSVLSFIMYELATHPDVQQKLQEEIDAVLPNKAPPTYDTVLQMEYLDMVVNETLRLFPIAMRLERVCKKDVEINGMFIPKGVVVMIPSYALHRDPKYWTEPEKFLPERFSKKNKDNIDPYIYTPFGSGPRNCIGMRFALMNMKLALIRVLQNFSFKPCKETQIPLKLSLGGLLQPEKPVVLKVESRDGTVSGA
# P-gp = P-gp (Homo sapiens, UniProt P08183); assay: Transporter systems in vitro: P-gp; format: in vitro ADME
# P-gp, sequence (P08183 whole entry): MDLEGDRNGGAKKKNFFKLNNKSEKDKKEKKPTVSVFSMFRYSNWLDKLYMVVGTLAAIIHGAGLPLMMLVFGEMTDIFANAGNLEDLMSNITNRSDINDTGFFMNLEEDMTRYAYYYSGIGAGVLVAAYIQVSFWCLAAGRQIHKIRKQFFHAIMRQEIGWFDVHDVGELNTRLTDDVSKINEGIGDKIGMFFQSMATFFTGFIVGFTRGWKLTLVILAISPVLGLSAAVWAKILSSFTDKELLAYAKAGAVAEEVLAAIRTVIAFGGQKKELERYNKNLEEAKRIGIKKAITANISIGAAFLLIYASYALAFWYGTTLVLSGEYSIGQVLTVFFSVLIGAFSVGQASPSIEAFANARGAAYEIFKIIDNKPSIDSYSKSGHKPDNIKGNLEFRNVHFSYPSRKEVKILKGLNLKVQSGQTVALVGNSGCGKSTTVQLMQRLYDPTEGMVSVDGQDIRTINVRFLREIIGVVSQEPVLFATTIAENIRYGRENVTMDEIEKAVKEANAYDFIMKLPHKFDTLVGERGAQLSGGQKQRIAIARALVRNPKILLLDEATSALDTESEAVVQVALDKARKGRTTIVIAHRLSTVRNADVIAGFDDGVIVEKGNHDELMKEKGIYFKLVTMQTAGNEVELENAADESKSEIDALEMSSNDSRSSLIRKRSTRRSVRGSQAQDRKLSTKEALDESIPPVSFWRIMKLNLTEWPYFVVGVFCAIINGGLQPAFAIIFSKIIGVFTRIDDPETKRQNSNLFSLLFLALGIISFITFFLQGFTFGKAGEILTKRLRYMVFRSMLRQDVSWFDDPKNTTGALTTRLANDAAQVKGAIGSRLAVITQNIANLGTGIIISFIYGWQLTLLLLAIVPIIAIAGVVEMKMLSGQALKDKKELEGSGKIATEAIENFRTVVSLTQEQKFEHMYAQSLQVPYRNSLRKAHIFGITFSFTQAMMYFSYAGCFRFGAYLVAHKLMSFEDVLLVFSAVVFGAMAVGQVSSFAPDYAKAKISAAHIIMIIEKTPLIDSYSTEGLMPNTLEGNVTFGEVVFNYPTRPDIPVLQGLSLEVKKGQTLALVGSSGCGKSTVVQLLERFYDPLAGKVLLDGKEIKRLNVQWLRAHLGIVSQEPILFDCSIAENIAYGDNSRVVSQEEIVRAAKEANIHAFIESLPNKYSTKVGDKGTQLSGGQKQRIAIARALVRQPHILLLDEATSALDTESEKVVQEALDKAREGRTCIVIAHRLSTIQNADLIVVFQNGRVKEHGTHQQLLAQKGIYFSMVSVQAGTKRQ
# rat bone marrow = assay: in vivo rat bone marrow micronucleus assay
# [8] = Group 14 (50 mg base/kg/day), Day 1
# [9] = 15 mg/kg/day, GD 6, belumosudil 15 mg base/kg oral
# [10] = 15 mg/kg/day, GD 17, belumosudil 15 mg base/kg oral
# [11] = 50 mg/kg/day, GD 6, belumosudil 50 mg base/kg oral
# [12] = 50 mg/kg/day, GD 17, belumosudil 50 mg base/kg oral
# [13] = 150 mg/kg/day, GD 6, belumosudil 150 mg base/kg oral
# [14] = 150 mg/kg/day, GD 17, belumosudil 150 mg base/kg oral
# [15] = single oral dose of radiolabeled belumosudil
smiles,measurement,setting,value
"CC(C)NC(=O)COc1cccc(-c2nc(Nc3ccc4[nH]ncc4c3)c3ccccc3n2)c1 [belumosudil, 2-{3-[4-(1H-indazol-5-ylamino)-2-quinazolinyl]phenoxy}-N-(propan-2-yl) acetamide]",UGT1A1 inhibition,UGT1A1,inhibitor
same,AUC0-24 in rat plasma,"[1]; Day 1, belumosudil 50 mg base/kg, F",49200 ng·h/mL
same,AUC0-24 in rat plasma,"[1]; Day 1, belumosudil 50 mg base/kg, M",20100 ng·h/mL
same,AUC0-24 in rat plasma,"[1]; Day 1, belumosudil 150 mg base/kg, F",95700 ng·h/mL
same,AUC0-24 in rat plasma,"[1]; Day 1, belumosudil 150 mg base/kg, M",81600 ng·h/mL
same,AUC0-24 in rat plasma,"[1]; Day 1, belumosudil 275 mg base/kg, F",122000 ng·h/mL
same,AUC0-24 in rat plasma,"[1]; Day 1, belumosudil 275 mg base/kg, M",96400 ng·h/mL
same,AUC0-24 in rat plasma,"[1]; Day 14, belumosudil 50 mg base/kg, F",26200 ng·h/mL
same,AUC0-24 in rat plasma,"[1]; Day 14, belumosudil 150 mg base/kg, F",99500 ng·h/mL
same,AUC0-24 in rat plasma,"[1]; Day 14, belumosudil 275 mg base/kg, F",209000 ng·h/mL
same,AUC0-24 in rat plasma,"[1]; Day 70, belumosudil 50 mg base/kg, M",21600 ng·h/mL
same,AUC0-24 in rat plasma,"[1]; Day 70, belumosudil 150 mg base/kg, M",70100 ng·h/mL
same,AUC0-24 in rat plasma,"[1]; Day 70, belumosudil 275 mg base/kg, M",191000 ng·h/mL
same,"sex difference in AUC0-24, females higher than males",[1]; [8],~2.44 fold
same,"sex difference in Cmax, females higher than males",[1]; [8],approximately 2.10 fold
same,Cmax,"[1]; female, Sprague-Dawley, oral, 150 mg base/kg",9860 ng/mL
same,AUC(0-t),"[1]; female, Sprague-Dawley, oral, 150 mg base/kg/day, females",99500 ng·h/mL
same,Cmax,"[1]; female, Sprague-Dawley, po, 50 mg/kg/day",3200 ng/mL
same,AUC(0-t),"[1]; female, Sprague-Dawley, po, 50 mg/kg/day, 50 mg base/kg/day, females",26200 ng·h/mL
same,Cmax,"[1]; female, Sprague-Dawley, po, 275 mg/kg/day, Day 14, belumosudil 275 mg base/kg, F",14900 ng/mL
same,AUC(0-t),"[1]; female, Sprague-Dawley, po, 275 mg/kg/day, 275 mg base/kg/day, females",209000 ng·h/mL
same,Cmax,"[1]; female, po, 50 mg/kg/day",4540 ng/mL
same,Cmax,"[1]; female, po, 150 mg/kg/day",5670 ng/mL
same,Cmax,"[1]; female, po, 275 mg/kg/day, Day 1, belumosudil 275 mg base/kg, F",7050 ng/mL
same,Cmax,"[1]; male, Sprague-Dawley, po, 50 mg/kg/day",2480 ng/mL
same,AUC(0-t),"[1]; male, Sprague-Dawley, po, 50 mg/kg/day, 50 mg base/kg/day, males",21600 ng·h/mL
same,Cmax,"[1]; male, Sprague-Dawley, po, 150 mg/kg/day",10100 ng/mL
same,AUC(0-t),"[1]; male, Sprague-Dawley, po, 150 mg/kg/day, 150 mg base/kg/day, males",70100 ng·h/mL
same,Cmax,"[1]; male, po, 50 mg/kg/day",2170 ng/mL
same,Cmax,"[1]; male, po, 150 mg/kg/day",5370 ng/mL
same,Cmax,"[1]; male, po, 275 mg/kg/day, Day 1, belumosudil 275 mg base/kg, M",7200 ng/mL
same,Cmax,"[1]; male, po, 275 mg/kg/day, Day 70, belumosudil 275 mg base/kg, M",20400 ng/mL
same,Cmax,[2]; [9],1530 ng/mL
same,AUC(0-t),[2]; [9],9750 ng·h/mL
same,Cmax,[2]; [10],1320 ng/mL
same,AUC(0-t),[2]; [10],11900 ng·h/mL
same,Cmax,[2]; [11],3000 ng/mL
same,AUC(0-t),[2]; [11],37700 ng·h/mL
same,Cmax,[2]; [12],4360 ng/mL
same,AUC(0-t),[2]; [12],33300 ng·h/mL
same,Cmax,[2]; [13],5150 ng/mL
same,AUC(0-t),[2]; [13],89400 ng·h/mL
same,Cmax,[2]; [14],7800 ng/mL
same,AUC(0-t),[2]; [14],88300 ng·h/mL
same,accumulation after multiple dosing of belumosudil,[2]; pregnant rats,No apparent accumulation
same,"genotoxicity, chromosome aberration assay",[3],not genotoxic
same,Tmax,"[4]; human, in vivo, oral, single dose, read-out: delay of median Tmax with high-fat and high-calorie meal",0.5 h
same,Vd,"[4]; human, in vivo, single dose, geo CV % 67.7%, read-out: geometric mean volume of distribution",184 L
same,increase in AUC with high-fat and high-calorie meal compared to fasted state,[4]; single dose,2 times
same,increase in Cmax with high-fat and high-calorie meal compared to fasted state,[4]; single dose,2.2 times
same,mean (% CV) bioavailability,[4]; single dose,64% (17%)
same,radioactivity recovered in feces,[4]; [15],85%
same,radioactivity recovered in urine,[4]; [15],less than 5%
same,recovered in feces as unchanged,[4]; [15],30%
same,mean (% CV) steady-state AUC,[5]; 200 mg once daily,22700 (48%) h·ng/mL
same,mean (% CV) steady-state Cmax,[5]; 200 mg once daily,2390 (44%) ng/mL
same,"pharmacokinetics with regard to age, sex, weight, or mild to moderate renal impairment","[5]; age 18 to 77 years, weight 38.6 to 143 kg",No clinically significant differences
same,Tmax,"[5]; human, in vivo, oral, 200 mg once daily or twice daily, read-out: Median Tmax at steady state",1.26 to 2.53 h
same,mean elimination half-life,"[5]; patients, % CV 39%",19 h
same,clearance,"[5]; patients, % CV 46%",9.83 L/h
same,OATP1B1 inhibition,OATP1B1,inhibits
same,CYP2D6 inhibition,CYP2D6,inhibitor
same,minor metabolizing enzymes,[6],"to a lesser extent by CYP2C8, CYP2D6, and UGT1A9"
same,primary metabolizing enzyme,[7],primarily metabolized by CYP3A4
same,P-gp substrate status,P-gp,substrate of P-gp
same,P-gp inhibition,P-gp; clinically relevant concentrations,inhibits
same,"genotoxicity, bone marrow micronucleus assay",rat bone marrow,not genotoxic
